Reference: patent publication US20220227782A1, “COMPOUND FOR INHIBITING RORyt ACTIVITY, PREPARATION METHOD THEREFOR AND APPLICATION THEREOF” (CELLREGEN (BEIJING) LIFE SCIENCE AND TECHNOLOGY CO., LTD., priority 2019, published 2022)

Columns and labels:
[1] = system: RORγt, IL17A, IL-17F mRNA; experiment: mRNA expression of RORγt, IL17A and IL-17F in Th17 cell differentiation in vitro; type: cell-based; settings: FIG. 22, 1.56, 3.12 and 6.25 μM compound vs solvent group
Protocol: (§1) In the figure, the results of solvent group, 1.56 μM compound group, 3.12 μM compound group, and 6.25 μM compound group are shown from left to right.

IL-17A = experiment: Intracellular protein expression of IL-17A (flow cytometer), Th17 cells; type: cell-based; settings: FIG. 21; 1.56, 3.12 and 6.25 μM compound vs solvent group
Excerpt: The compound for inhibiting RORγt activity as described above may be used in preparation of a therapeutic formulation for the treatment of autoimmune diseases, in preparation of a formulation that inhibits formation of a Th17 cell, in preparation of a formulation that inhibits the RORγt transcription activity, or in preparation of a formulation that inhibits transcription and expression of IL17A gene and/or IL17F gene. The compounds having the structural formula (A) has a good inhibitory effect on RORγt activity. […] Therefore, the compound may be used to produce a formulation of corresponding activity inhibitor, and provide a leading structure for the development of therapeutic drugs for autoimmune diseases.
as §1

[2] = CC50 test, median cytotoxic concentration against RORγt-LBD+-Jurkat cells; type: cell-based; settings: human
Excerpt: (§2) EC50 and CC50 tests: EC50 (half maximal (50%) effective concentration) is a half maximal effective concentration against RORγt-LBD+-Jurkat cells, and CC50 (median (50%) cytotoxic concentration) is a median cytotoxic concentration against RORγt-LBD+-Jurkat cells.

RORγt = molecular target: T1, RORγt (Homo sapiens, UniProt P51449); experiment: EC50 test, inhibition of RORγt transcription activity (luciferase activity reporter system) in RORγt-LBD+-Jurkat cells; type: cell-based; settings: for EC50: half maximal effective concentration against RORγt-LBD+-Jurkat cells
T1 construct: half maximal effective concentration against RORγt-LBD+-Jurkat cells; expressed in transfected cells; host or cells: Jurkat
T1 sequence (P51449 269-508 limits assumed): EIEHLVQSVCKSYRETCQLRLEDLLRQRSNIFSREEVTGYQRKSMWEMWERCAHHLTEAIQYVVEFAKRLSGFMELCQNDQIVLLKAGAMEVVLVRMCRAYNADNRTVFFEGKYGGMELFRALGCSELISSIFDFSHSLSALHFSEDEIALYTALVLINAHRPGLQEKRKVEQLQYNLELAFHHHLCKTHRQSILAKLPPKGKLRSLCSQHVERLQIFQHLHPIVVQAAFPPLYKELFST
Excerpt: as §2

EAE = settings: high concentrations (40 mg/kg); cited from earlier work
Th17 cells = settings: cited from earlier work
other RORs = settings: cited from earlier work

Structure (SMILES): Cc1nc(Sc2nnnn2-c2ccccc2)c2c3c(sc2n1)CCCC3 [Compound 6]
- inhibition of mRNA expression of RORγt, IL17A and IL-17F (in words) [1]: significant inhibitory effects
- inhibition of intracellular protein expression of IL-17A (in words) (IL-17A): significant inhibitory effects
- CC50 [2]: 3.98 µM
- EC50 (RORγt): 2.79 µM

Structure (SMILES): Cc1nc(Sc2nnnn2-c2ccccc2)c2c3c(sc2n1)CC(C)CC3 (stereo not drawn) [Compound 7]
- CC50 [2]: > 10 µM
- EC50 (RORγt): > 10 µM

Structure (SMILES): CCC1CCc2c(sc3nc(C)nc(Sc4nnnn4-c4ccccc4)c23)C1 (stereo not drawn) [Compound 8]
- CC50 [2]: > 10 µM
- EC50 (RORγt): > 10 µM

Structure (SMILES): CCCC1CCc2c(sc3nc(C)nc(Sc4nnnn4-c4ccccc4)c23)C1 (stereo not drawn) [Compound 9]
- CC50 [2]: > 10 µM
- EC50 (RORγt): > 10 µM

Structure (SMILES): Cc1nc(Sc2nnnn2-c2ccccc2)c2c3c(sc2n1)CC(C(C)(C)C)CC3 (stereo not drawn) [Compound 11]
- CC50 [2]: < 1 µM
- EC50 (RORγt): 8.25 µM

Structure (SMILES): Cc1nc(Sc2nnnn2-c2ccccc2)c2c3c(sc2n1)CC(F)(F)CC3 [Compound 12]
- CC50 [2]: < 1 µM
- EC50 (RORγt): 1.35 µM

Structure (SMILES): Cc1nc(Sc2nnnn2-c2ccccc2)c2c3c(sc2n1)CC(C(=O)O)CC3 (stereo not drawn) [Compound 14]
- CC50 [2]: > 10 µM
- EC50 (RORγt): > 20 µM

Structure (SMILES): Cc1nc(Sc2nnnn2-c2ccccc2)c2c3c(sc2n1)CC(C(=O)NC1CCOCC1)CC3 (stereo not drawn) [Compound 15]
- CC50 [2]: < 10 µM
- EC50 (RORγt): > 10 µM

Structure (SMILES): Cc1cccc(NC(=O)C2CCc3c(sc4nc(C)nc(Sc5nnnn5-c5ccccc5)c34)C2)c1 (stereo not drawn) [Compound 16]
- CC50 [2]: < 10 µM
- EC50 (RORγt): > 10 µM

Structure (SMILES): Cc1nc(Sc2nnnn2-c2ccccc2)c2c3c(sc2n1)CC(C(=O)Nc1ccc(C(C)C)cc1)CC3 (stereo not drawn) [Compound 17]
- CC50 [2]: < 1 µM
- EC50 (RORγt): > 10 µM

Structure (SMILES): Cc1nc(Sc2nnnn2-c2ccccc2)c2c3c(sc2n1)CC(C(=O)NCc1ccccc1)CC3 (stereo not drawn) [Compound 18]
- CC50 [2]: > 10 µM
- EC50 (RORγt): 12.6 µM

Structure (SMILES): Cc1nc(Sc2nnnn2-c2ccccc2)c2c3c(sc2n1)CC(C(=O)Nc1cccc(Cl)c1)CC3 (stereo not drawn) [Compound 19]
- CC50 [2]: < 10 µM
- EC50 (RORγt): > 10 µM

Structure (SMILES): Cc1nc(Sc2nnnn2-c2ccccc2)c2c3c(sc2n1)CC(C(=O)Nc1ccc(Br)cc1)CC3 (stereo not drawn) [Compound 20]
- CC50 [2]: < 10 µM
- EC50 (RORγt): > 10 µM

Structure (SMILES): Cc1nc(Sc2nnnn2-c2ccccc2)c2c3c(sc2n1)CC(C(=O)Nc1nccs1)CC3 (stereo not drawn) [Compound 21]
- CC50 [2]: < 10 µM
- EC50 (RORγt): > 10 µM

Structure (SMILES): Cc1nc(Sc2nnnn2-c2ccccc2)c2c3c(sc2n1)CC(C(=O)Nc1ncc(C)s1)CC3 (stereo not drawn) [Compound 22]
- inhibition of mRNA expression of RORγt, IL17A and IL-17F (in words) [1]: significant inhibitory effects
- inhibition of intracellular protein expression of IL-17A (in words) (IL-17A): significant inhibitory effects
- CC50 [2]: 4.32 µM
- EC50 (RORγt): 9.06 µM

Structure (SMILES): Cc1nc(Sc2nnnn2-c2ccccc2)c2c3c(sc2n1)CC(C(=O)Nc1cccnc1)CC3 (stereo not drawn) [Compound 23]
- CC50 [2]: < 5 µM
- EC50 (RORγt): > 10 µM

Structure (SMILES): Cc1nc(Sc2nnnn2-c2ccccc2)c2c3c(sc2n1)CC(C(=O)Nc1ccc(F)cn1)CC3 (stereo not drawn) [Compound 24]
- CC50 [2]: < 10 µM
- EC50 (RORγt): > 10 µM

Structure (SMILES): Cc1nc(Sc2nnnn2-c2ccccc2)c2c3c(sc2n1)CC(C(=O)Nc1nc2ccc(F)cc2s1)CC3 (stereo not drawn) [Compound 25]
- CC50 [2]: < 5 µM
- EC50 (RORγt): > 10 µM

Structure (SMILES): O=C(Cc1nc(Sc2nnnn2-c2ccccc2)c2c3c(sc2n1)CCCC3)Nc1nc2ccccc2[nH]1 [Compound 31]
- inhibition of mRNA expression of RORγt, IL17A and IL-17F (in words) [1]: significant inhibitory effects
- inhibition of intracellular protein expression of IL-17A (in words) (IL-17A): significant inhibitory effects
- CC50 [2]: 9.18 µM
- inhibiting RORγt transcription activity (in words) (RORγt; FIG. 20): significant effect
- EC50 (RORγt): 0.85 µM

Structure (SMILES): CC(=O)Nc1nc(C)c(S(=O)(=O)Nc2ccc(C(O)(C(F)(F)F)C(F)(F)F)cc2)s1 [SR1001]
- reduction of clinical symptoms of EAE in vivo (EAE): only reduce the clinical symptoms of EAE slightly
- inhibition of differentiation of Th17 cells in vitro (Th17 cells): effectively inhibit the differentiation of Th17 cells
- selectivity (interaction with other RORs) (other RORs): poor selectivity
